Patent US10072304B2, “Nuclear localization of Src-family tyrosine kinases is required for growth factor-induced euchromatinization” (National University Corporation Chiba University, priority 2009, dated 2018)

System: nuclear SFKs
Assay: In vitro tyrosine phosphorylation of purified nuclei (kinase activity of nuclear SFKs)
Assay type: biochemical, monkey
Conditions: purified COS-1 nuclei, 10 μM PP2, FIGS. 30 and 31
Description: Nuclei were prepared as described previously. In brief, COS-1 and HeLa cells were swollen in hypotonic buffer (10 mM HEPES-KOH, pH 7.9, 1.5 mM MgCl2, 10 mM KCl, 0.5 mM DTT, and 1 mM Na3VO4) containing protease inhibitors (2 mM phenylmethylsulfonyl fluoride, 50 μg/mL aprotinin, 100 μM leupeptin, and 25 μM pepstatin A) at 4° C. for 20 min, followed by homogenization with 20 strokes in a tight-fitting 1-ml Dounce homogenizer. After cell suspension was centrifuged at 200×g for 5 min, cell pellets were resuspended in 0.25 M sucrose containing protease inhibitors, 10 mM MgCl2, and 1 mM Na3VO4. […]
Confocal and Nomarski differential-interference-contrast images were obtained using a Fluoview FV500 confocal laser scanning microscope with a 40×1.00 NA oil and a 100×1.35 NA oil immersion objective (Olympus, Tokyo) and an LSM 510 confocal laser scanning microscope with a 63×1.40 NA oil immersion objective (Zeiss), as described. […] Emission signals were detected between 505 and 525 nm for fluorescein, at more than 560 nm for rhodamine and more than 610 nm for PI [44]. […] Fluorescence intensity plots of anti-histone H3K4me3, anti-ATF-2 pT69/71 and anti-HP1α antibody and PI staining (see FIGS. 18B, 19B, and 20B, respectively) were generated using Fluoview version 4.3 software (Olympus, Tokyo). […]

ATP-induced increase in nuclear tyrosine phosphorylation in purified nuclei: significantly inhibited
SMILES: CC(C)(C)n1nc(-c2ccc(Cl)cc2)c2c(N)ncnc21 [PP2]
